Assay results: patent US7501233B2, “Method for measuring the vitality of cells” (priority 2000, dated 2009)
*1 amine or outer side, *2 acyl side, *3 side chain or, on linkers, in order; H or OH if unused. Where a SMILES comes first, the peptide text is derived from it. Bridges are numbered along the chain shown (N, C = ends). Roman numbers before positions name the chains, in order. [ ]: non-standard residue; d: D form. Actinocin(9to1) = Cc1c2oc3c(C)ccc(C(=O)[*:1])c3nc-2c(C(=O)[*:2])c(N)c1=O; NMeV = CN[C@H](C(=O)O)C(C)C; Sar = CNCC(=O)O

Tested on: Jurkat cells
Assay: Electrorotation measurement (ER spectra) of single cells in a microelectrode field cage
Format: cell-based
Text: An instrument already described by C. C. Reichle, T. Schnelle, T. Müller, T. Leya and G. Fuhr (2000, A new microsystem for automatic electrorotation measurements using laser tweezers, Biochimica et Biophysica Acta 1459, p. 218- 229), a combination of dielectrophoretical field cages with optical traps, especially laser tweezers, was used for determination of the electrorotation spectra (FIG. 6). […] Reichle and G. Fuhr 2000, Combined dielectrophoretic field cages and laser tweezers for electrorotation, Applied Physics B, Lasers and Optics, Springer Verlag.
Jurkat T lymphoma cells and U937 monocytic cells were cultivated in RPMI-1640 medium supplemented with 10% fetal calf serum and 100 IU/ml penicillin as well as 100 IU/ml streptomycin. Apoptosis was triggered by addition of 5 μg/ml actinomycin D in a culture that was seeded the day before with 2×10^5 cells per ml. The classical morphological changes during apoptosis were documented photographically (see FIG. 1). At different times, an aliquot was taken from the culture, added to a mixture of isotonic phosphate buffer (PBS, D8662 from SIGMA with calcium and magnesium) and, if desired, 0.3 M inositol with correspondingly indicated electrical conductivity, and introduced in a device for measurement of the electrorotation in a microelectrode system. As a control, untreated Jurkat cells were used (FIG. 5). For comparison, electrorotation spectra (ER spectra) were determined from ionomycin-treated cells ([…]) as well as from cells the plasma membrane of which had been damaged by increasing the voltage from 4 V to 6.8 V or a treatment with optical tweezers with 30-60 mW (2.8 A of the 1 W Nd:YAG laser, TEM00, 1064 nm, LD 3000i, Laser Quantum Ltd., Manchester, UK, P.A.L.M. System) for 15 minutes. For this, the cells were transferred individually to the center of the quadrupole or octupole of the microelectrode system. For this, optical tweezers with a power of approx. 30 mW were used in the indicated cases at the site of holding. The frequency of the cell rotation was measured either automatically or using a timer (FIG. 2). The uptake of propidium iodine (5 μm) in necrotically damaged cells or comparative measurements with vital and apoptotic cells (FIGS. 3 and 4) was measured by confocal nanofluorometry (Gradl, T. Müller, C. Reichle, T. Schnelle and G. Fuhr, 1999, Micro-Electrode Systems for Cell Analysis, European Journal of Cell Biology, Suppl. 49, Vol. 78; T. Schnelle, T. Müller, G. Gradl, S. G. Shirley and G. Fuhr, 2000, Dielectrophoretic manipulation of suspended submicron particles, ELECTROPHORESIS 2000, 21, p. 66-73).
The device for measurement of the electrorotation was attached to a fluorescence correlation spectrometer. The cells were made visible over a 40×W 1.2 NA lens. They were excited with 1.5 μW by a helium-neon laser with a wavelength of 543 nm and the radiated fluorescence was passed through a 585 DF 35 band pass filter over a 50 μm pinhole to a photodiode, with which the fluorescence photons were counted.

[1] = ionomycin-treated cell vs. untreated cell, PBS

Cc1c2oc3c(C)ccc(C(=O)N[C@@H]4C(=O)N[C@H](C(C)C)C(=O)N5CCC[C@H]5C(=O)N(C)CC(=O)N(C)[C@@H](C(C)C)C(=O)O[C@@H]4C)c3nc-2c(C(=O)N[C@@H]2C(=O)N[C@H](C(C)C)C(=O)N3CCC[C@H]3C(=O)N(C)CC(=O)N(C)[C@@H](C(C)C)C(=O)O[C@@H]2C)c(N)c1=O [actinomycin D, Actinomycin D] (I: T[dV]P[Sar][NMeV] / II: T[dV]P[Sar][NMeV]; ester I:1-I:C, II:1-II:C; linker I:N-II:N via Actinocin(9to1))
ratio of rotation speed at 10 MHz to rotation speed at 2.5 MHz (apoptotic Jurkat cell (actinomycin D, 4 hours), normal cell near 1, necrotic 0.6-0.8): 1.4
field frequency of highest rotation speed in ER spectrum (apoptotic Jurkat cell, 5 μg/ml actinomycin D for 4 hours (FIG. 2E), normal cell maximum around 2.5 MHz): approx. 10 MHz

C[C@H](CCC(=O)O)C[C@H](C)C[C@H](C)C(=O)/C=C(\O)[C@H](C)C[C@H](C)C/C=C/[C@@H](C)[C@@H](O)[C@@H](C)[C@@H](O)C[C@@H]1CC[C@@](C)([C@H]2CC[C@@](C)([C@@H](C)O)O2)O1 [ionomycin, Ionomycin]
dielectric constant εω in the cell (ionomycin 10 μM, Jurkat cell in PBS, from fits of ER spectra, increase from 45 (untreated)): 75
conductivity σ (as sum of σ0, Δσ1 and Δσ2) in the cell (ionomycin 10 μM, approx. 5 min, Jurkat cell in PBS, from fits of ER spectra, increase from 0.77 (untreated)): 1.15 s m^−1
increase in the HF conductivity of the cytoplasm [1]: approx. 40%
increase of the dielectric constant of the cytoplasm [1]: more than 60%
